In paper PMC6943638, “Lectin PLL3, a Novel Monomeric Member of the Seven-Bladed β-Propeller Lectin Family” (Molecules, 2019):
Read-outs that look alike come from different tables or passages of the source.

What was measured:
PLL3 [1] = target: T1, PLL3 (Photorhabdus laumondii subsp. laumondii, UniProt Q7N8I7); experiment: Surface plasmon resonance, apparent KD on immobilized glycans; type: binding; details: SPR, immobilized glycan, PLL3 100 to 0.195 μM, steady-state
Procedure: (§1) SPR experiments were performed in a BIAcore T200 instrument (GE Healthcare, UK) using a four-channel sensor chip CM5 with a carboxymethyldextran surface layer (GE Healthcare, UK). Saccharides were immobilized on the chip surface using the procedure as described elsewhere. Immobilization was performed in the HBS buffer (10 mM HEPES, 150 mM NaCl, 0.05% Tween 20, pH 7.5) at a flow rate of 10 μL min^−1. For OMeDis immobilization, the surface of the channel was activated with N-hydroxysuccinimide/N-ethyl-N-(3-dimethylaminopropyl)carbodiimide solution (NHS/EDC) and subsequently OMeDis covalently modified by linker (-O-(p-C6H4)-OCH2CH2NH2) in HBS was injected. The final response of immobilized OMeDis was 136 RU. Non-reacted groups were blocked by 1 M ethanolamine/HCl (pH 8.5). A corresponding blank channel was prepared the same way, omitting the ligand injection. […] Biotinylated α-L-fucoside was injected onto this channel to the final response of 63 RU. A corresponding blank channel was prepared the same way without the injection of biotinylated fucoside.
(§2) Between individual injections, the channels were regenerated by 50 mM NaOH for 30 s. The experiment was run at a flow rate of 30 μL min^−1 and a contact time of 120 s. The concentration of PLL3 ranged from 100 μM to 0.195 μM. An apparent KD was calculated in BIAevaluation software using the steady-state approach.

PLL3 [2] = experiment: as above; type: binding, Photorhabdus laumondii subsp. laumondii; details: PLL3 compared with PLL2 and PHL of ref 17
Procedure: as §1, §2

PLL3 [3] = target: T1, PLL3; experiment: Hemagglutination inhibition assay (PLL3 with erythrocytes of blood group O); type: cell-based; details: PLL3 50 μM; for inhibition of hemagglutination: blood group O erythrocytes, saccharide 100 to 0.1 mM; for minimal inhibitory concentration (MIC) of hemagglutination: erythrocytes of blood group O 10% (v/v)
Procedure: For the hemagglutination inhibition assay, the PLL3 was mixed with serially diluted saccharides (L-fucose, αMeFuc, D-galactose, D-glucose, and 3-O-methyl-D-glucose) dissolved in PBS buffer, and mixtures were incubated for 15 min at room temperature. Subsequently, erythrocytes of blood group O were added into the mixture with following incubation for 15 min. The final concentration was 50 μM for the PLL3 and 10% (v/v) for erythrocytes. Concentrations of L-fucose and αMeFuc ranged from 50 to 0.05 mM. Concentrations of D-galactose, D-glucose, and 3-O-methyl-D-glucose ranged from 100 to 0.1 mM. Each sample was observed under the optical microscope (Olympus IX81 with camera DP72; 200x magnification; SW CellSens Dimension, Olympus corporation, Tokyo, Japan).

PLL3 [4] = target: T1, PLL3; experiment: Isothermal titration calorimetry (ITC); type: binding
Procedure: ITC experiments were carried out using an AutoITC200 calorimeter (Malvern, UK) at 25 °C. The purified lectin was dialyzed against 20 mM Tris/HCl, 150 mM NaCl, pH 7.5 buffer before measurements. Individual ligands (L-fucose, αMeFuc, D-galactose, D-glucose, 3-O-methyl-D-glucose, and decavalent fucosylated glycoclusters 4a and 4b) were dissolved in the same buffer. PLL3 (100 μM) in the cell was titrated by the successive addition (2.0 μL) of the ligand in the syringe (20 mM for monosaccharides, 1 mM for multivalent fucosides). Experiments with monosaccharides were performed at stirring 750 rpm with a reference power of 10 μcal s^−1. Experiments with multivalent fucosides were performed at stirring 500 rpm with a reference power of 6 μcal s^−1. Titrations were carried out in three independent measurements for each ligand. Blank measurements were subtracted from collected data. For multivalent fucosides, two blank measurements were performed: titration of the buffer into the cell with PLL3 and titration of the buffer into the buffer. For monosaccharides, the additional blank measurement, the titration of a given ligand into the cell with buffer, was performed. The data were evaluated in software MicroCal PEAQ-ITC Analysis Software (Malvern, UK) by using the global fit method. Integrated heat effects were analyzed by nonlinear regression.

PLL3 [5] = target: T1, PLL3; experiment: SPR inhibition test on immobilized OMeDis; type: binding
Procedure: as §1
SPR inhibition tests were carried out on a channel with immobilized OMeDis using the same buffer and flow rate values as those for the binding studies. The final concentration of the lectin was 20 μM. PLL3 was mixed with serially diluted saccharides (50–0.05 mM for L-fucose; 12.5–0.013 mM for αMeFuc; 200–0.2 mM for 3-O-methyl-D-glucose; and 400–0.4 mM for D-glucose and D-galactose) and injected onto the chip. The lectin sample without ligand was used as a control with 0% inhibition effect. The response of blank channel as well as the response of corresponding saccharides were subtracted from the response of lectin bound to the OMeDis surface at equilibrium. A final response was plotted against the concentration of inhibitor in order to determine IC50 (concentration of inhibitor resulting in 50% inhibition of binding).

PLL3 [6] = target: T1, PLL3; experiment: Glycan array screening with DyLight 488-labeled PLL3; type: binding; details: PLL3 200 μg mL^-1, hexaplicates
Description: Purified PLL3 protein was labeled with DyLight 488 NHS Ester (Thermo Scientific, Rockford, MI, USA) according to the manual instructions of the manufacturer. The unbound dye was removed from the solution using the Zeba Spin Desalting Column (Thermo scientific). The labeled lectin was used for glycan array screening using a glycan microarray chip (Semiotik, Moscow, Russia; chip format OSPS280715; slide number 10085636) containing over 600 mammalian and bacterial glycans (all in hexaplicates). The glycan microarray chip was incubated in 1.0 mL of PBS buffer supplemented with 0.1% (v/v) Tween 20 and placed in a humid chamber for 15 min (37 °C, 40 rpm). Then, the buffer was replaced by 0.5 mL PLL3 (200 μg mL^−1) diluted in PBS buffer with 0.1% Tween 20 and 1% (w/v) bovine serum albumin (Serva, Germany). After incubation (90 min, 37 °C, 40 rpm), the chip was washed by decreasing concentrations of PBS with 0.1% Tween 20, followed by multiple immersions in ultrapure water. Subsequently, the chip was dried by air blow. Fluorescence was read with a scanner InnoScan 1100 AL (Innopsys, Carbonne, France) with a 488 nm laser at 20 °C. The data were analyzed with the software Mapix 8.2.2 and an online glycan chip converter (Semiotik, https://rakitko.shinyapps.io/semiotik). The relative fluorescent response of PLL3 binding was calculated from hexaplicates of each glycan immobilized onto the chip. Only glycans with a response three or more times higher than trehalose and concurrently with a signal-to-noise ratio higher than two were considered as significant binders.

[7] = stoichiometry fixed to 3, 25 °C, read-out: KD
[8] = stoichiometry fixed to 4, 25 °C, read-out: KD
[9] = stoichiometry fixed to 5, 25 °C, read-out: KD
[10] = stoichiometry fixed to 6, 25 °C, read-out: KD
[11] = stoichiometry fixed to 7, 25 °C, read-out: KD

T1 sequence (Q7N8I7 entry or part of it): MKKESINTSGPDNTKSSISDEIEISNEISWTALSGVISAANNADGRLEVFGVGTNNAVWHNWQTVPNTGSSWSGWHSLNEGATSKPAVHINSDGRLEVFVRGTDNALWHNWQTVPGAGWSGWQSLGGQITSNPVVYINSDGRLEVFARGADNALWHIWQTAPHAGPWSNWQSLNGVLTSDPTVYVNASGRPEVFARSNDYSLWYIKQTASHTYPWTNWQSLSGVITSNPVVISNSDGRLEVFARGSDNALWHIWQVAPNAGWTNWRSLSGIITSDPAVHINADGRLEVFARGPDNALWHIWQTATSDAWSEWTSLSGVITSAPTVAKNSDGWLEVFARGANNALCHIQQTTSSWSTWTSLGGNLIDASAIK

Compound	Kd (PLL3 [1]) [mM]	interaction with immobilized OMeDis, fold weaker than for PLL2 and PHL (PLL3 [2])	inhibition of hemagglutination (PLL3 [3])	Kd (PLL3 [4]; [7]) [mM]	Kd (PLL3 [4]; [8]) [mM]	Kd (PLL3 [4]; [9]) [mM]	Kd (PLL3 [4]; [10]) [mM]	Kd (PLL3 [4]; [11]) [mM]	Kd (PLL3 [4]; text summary over stoichiometry fixed 3 to 7, read-out: KD values) [mM]	IC50 (PLL3 [5]) [mM]	inhibitory effect (PLL3 [5]; PLL3 20 μM, immobilized OMeDis, highest concentration used 400 mM)	minimal inhibitory concentration (MIC) of hemagglutination (PLL3 [3]) [µM]	IC50 (PLL3 [5]; inhibition of interaction between PLL3 (20 μM) and immobilized OMeDis, read-out: IC50) [mM]	glycan array response relative to trehalose (negative control) (PLL3 [6]) [fold]
3,6-O-Me2-Glcβ1-4(2,3-O-Me2)Rhaα [OMeDis]	0.607 ± 0.046	10^5 fold												
CO[C@@H]([C@H](O)[C@H](O)CO)[C@@H](O)C=O [3-O-methyl-D-glucose]			did not inhibit hemagglutination	11.3 ± 1.55	11.1 ± 1.5	10.9 ± 1.5	10.7 ± 1.5	10.4 ± 1.45	> 10.4	26.4 ± 2.84				
OC[C@H]1OC(O)[C@H](O)[C@@H](O)[C@@H]1O (stereo partly drawn) [D-glucose]			did not inhibit hemagglutination	3.7 ± 0.08	3.6 ± 0.08	3.4 ± 0.08	3.3 ± 0.07	3.1 ± 0.07			did not exhibit any inhibitory effect			
C[C@H](O)[C@@H](O)[C@@H](O)[C@H](O)C=O [L-fucose]				3.4 ± 0.12	3.3 ± 0.12	3.2 ± 0.11	3.1 ± 0.1	3 ± 0.09		2.51 ± 0.09		1560		
CO[C@@H]1O[C@@H](C)[C@@H](O)[C@@H](O)[C@@H]1O [methyl α-L-fucopyranoside]				0.7 ± 0.02	0.7 ± 0.03	0.6 ± 0.03	0.6 ± 0.03	0.6 ± 0.03				780	1.04 ± 0.05	
α-L-fucoside	0.322 ± 0.086													~20
